The NIST ThermoML archive (doi:10.1016/j.fluid.2005.05.012)

Experiment: xn = mol fraction of the nth substance listed
Settings: 101.33 kPa, Liquid

CN1CCNCC1 [N-methylpiperazine] + CC(C)O
Settings | mass density, 293.15 K [kg/m3] | mass density, 298.15 K [kg/m3] | mass density, 303.15 K [kg/m3] | viscosity, 293.15 K [mPa·s] | viscosity, 298.15 K [mPa·s] | viscosity, 303.15 K [mPa·s]
x2 = 0 | 903.78 | 899.8 | 894.54 | 2.1 | 1.841 | 1.624
x2 = 0.0998 | 897.99 | 893.98 | 888.87 | 2.261 | 1.967 | 1.733
x2 = 0.1988 | 891.42 | 887.39 | 882.45 | 2.393 | 2.072 | 1.816
x2 = 0.3003 | 883.75 | 879.73 | 874.96 | 2.502 | 2.162 | 1.891
x2 = 0.3998 | 875.22 | 871.21 | 866.62 | 2.581 | 2.224 | 1.938
x2 = 0.5 | 865.48 | 861.47 | 857.07 | 2.65 | 2.281 | 1.984
x2 = 0.5996 | 854.41 | 850.38 | 846.15 | 2.69 | 2.312 | 2.012
x2 = 0.7 | 841.49 | 837.39 | 833.32 | 2.704 | 2.329 | 2.027
x2 = 0.7991 | 826.48 | 822.27 | 818.3 | 2.678 | 2.309 | 2.008
x2 = 0.8503 | 817.61 | 813.32 | 809.39 | 2.648 | 2.284 | 1.986
x2 = 0.9003 | 808.06 | 803.69 | 799.79 | 2.615 | 2.25 | 1.954
x2 = 0.9489 | 797.8 | 793.36 | 789.46 | 2.541 | 2.183 | 1.893

CN1CCNCC1 [N-methylpiperazine] + CCCCO
Settings | mass density, 293.15 K [kg/m3] | mass density, 298.15 K [kg/m3] | mass density, 303.15 K [kg/m3] | viscosity, 293.15 K [mPa·s] | viscosity, 298.15 K [mPa·s] | viscosity, 303.15 K [mPa·s]
x2 = 0 | 903.79 | 899.8 | 894.54 | 2.1 | 1.841 | 1.624
x2 = 0.0982 | 898.89 | 894.98 | 889.88 | 2.247 | 1.966 | 1.73
x2 = 0.199 | 893.13 | 889.24 | 884.23 | 2.431 | 2.115 | 1.859
x2 = 0.2966 | 886.88 | 883.01 | 878.11 | 2.631 | 2.283 | 2.002
x2 = 0.3973 | 879.73 | 875.91 | 871.16 | 2.841 | 2.461 | 2.153
x2 = 0.5001 | 871.61 | 867.85 | 863.29 | 3.018 | 2.615 | 2.284
x2 = 0.6004 | 862.72 | 859.01 | 854.62 | 3.181 | 2.751 | 2.392
x2 = 0.6995 | 852.72 | 849.01 | 844.76 | 3.261 | 2.832 | 2.471
x2 = 0.7537 | 846.6 | 842.86 | 838.67 | 3.272 | 2.846 | 2.495
x2 = 0.7936 | 841.74 | 837.97 | 833.81 | 3.258 | 2.841 | 2.486
x2 = 0.8002 | 840.9 | 837.13 | 832.97 | 3.247 | 2.833 | 2.489
x2 = 0.8419 | 835.38 | 831.58 | 827.45 | 3.218 | 2.812 | 2.473
x2 = 0.8997 | 827 | 823.16 | 819.05 | 3.145 | 2.756 | 2.427
